The subject of one series is stomach (mucosal damage). The experiment in a line: In vivo ulcerogenicity study in rats. The following applies: for number of lesions / ulcer score: single equimolar dose (diclofenac sodium 100 mg/kg, prodrug 140 mg/kg); for number of lesions: average, for the prodrug punctiform lesions; for ulcer score: sacrificed after 17 h. The arrangement: species or system male Sprauge-Dawley rats. The procedure: The ulceroginicity of diclofenac sodium and its prepared prodrug 2 were evaluated. Three groups (six animals each) of male Sprauge-Dawley rats (150–200 gm) were fasted for 8 h prior to administration of single equimolar doses of diclofenac sodium (100 mg/kg), its prodrug (140 mg/kg), or vehicle. Free access to food and water were provided throughout the experiment. […] The stomach of the rats was dissected out of the body, and stomach content was emptied and washed with saline. The stomach was then opened and wiped with a clean swap dipped in saline. The degree of mucosal damage was assessed using a 4× binocular magnifier. The severity of the damage was assessed according to a scoring system where the presence of <5 punctiforms with no ulcers was given the score of zero. A punctiform was defined as a lesion of less than 1 mm. If >5 punctiforms were present with no ulcer, a score of 1 was given. If 1–5 small ulcers (1–2 mm in diameter) were observed, a score of 2 was given. If >5 small ulcers or one large ulcer (>2 mm in diameter) was present, a score of […] was given. If >1 large ulcer was observed, a score of 4 was given. The scores were averaged and the mean score was tabulated as ulcerogenicity index for the drugs under investigation.

The nature of series [1]: Hydrolysis kinetics in aqueous buffer solution. It is filed as physicochemical. The following applies: about 37 °C. How it is done:
(§1) The HPLC analysis was performed using LaChrom Merck Hitachi system that consists of a D-7000 interface, L-7200 diode array detector, pump L-7150 and D-7000HSM software (Schaumburg, IL, USA). The UV detector was set at 280 nm wave length. The HPLC column was an Agela unisol-C18, 5 micron 4.6 × 150. Mobile phase was 80% methanol, 20% water. To each litre, 2 mL acetic acid were added. The mobile phase was pumped at flow rate 1.5 mL/min. The retention times were: 5.17 min 6.19 min and 7.15 min for 2-hydroxyethyldiclofenac, diclofenac sodium and the morpholine prodrug, respectively (Figure 2). The analytical method was fully validated.
The prodrug under investigation was incubated in 0.1 N HCl (pH 1.0) and phosphate buffer (pH 7.4). The formed solutions were kept in a shaking water bath at about 37 °C for eight h. At appropriate intervals, samples (100 µL) were analyzed using the HPLC method described earlier.

The nature of series [2]: Hydrolysis kinetics in human plasma. The following applies: 37 ± 0.3 °C. It is filed as in vitro ADME. How it is done:
as §1
The prodrug under investigations was incubated in human plasma using a shaking water bath, which was set at 37 ± 0.3 °C. An amount of 25 µL of 1.0 mg/mL stock solution of the prodrug under investigation was added to 5 mL of the incubated plasma. At appropriate time points, samples of 100 μL were withdrawn and deproteinized by adding equal volumes of acetonitrile. The formed mixture was mixed on a vortex then centrifuge at 2,500 rpm for 10 min. The clear supernatant was analyzed using the HPLC method.

Structures can show the parent of a compound that is named as a salt.

`O=C(O)Cc1ccccc1Nc1c(Cl)cccc1Cl` [Compound 1, 2-[(2,6-dichloro-phenyl])amino]benzeneacetic acid sodium salt]: the “lesions larger than 2 mm” value in the series with stomach (mucosal damage) (single dose diclofenac sodium 100 mg/kg, 17 h) was “six”. Also, the number of lesions in the series on stomach (mucosal damage) (17 h) is given as 82. In the series with stomach (mucosal damage), the ulcer score result is reported as “four”.
For `O=C(Cc1ccccc1Nc1c(Cl)cccc1Cl)OCCOC(=O)N1CCOCC1` [Compound 2], the half-life in series [1] (pH 1 (0.1 N HCl)) was 8 h; in series [1] (pH 7.4 (phosphate buffer)), 47 h. The number of lesions result with stomach (mucosal damage) (17 h) is given as “less than five”. In addition, the ulcer score entry with stomach (mucosal damage) is reported as “zero”. The molecule also gave a half-life at 5 µg/mL in series [2] of 0.35 h.

The record behind these values is PMC4014702, “Synthesis, In Vitro and In Vivo Evaluation of the N-ethoxycarbonylmorpholine Ester of Diclofenac as a Prodrug” (Pharmaceuticals, 2014).
